Tests used:
Bos taurus = organism: Bos taurus; assay: Relative affinity for alpha-1 and alpha-2 adrenergic receptors; set-up: reference not given here
[1] = Displacement of [3H]clonidine from alpha-2-adrenergic receptor of calf neocortical membrane; set-up: species or system Bos taurus
[2] = Displacement of [3H]prazosin from alpha-1-adrenergic receptor of calf neocortical membrane; set-up: species or system Bos taurus

Row | SMILES | Ratio (Bos taurus) | Kd [1] [nM] | Kd ([2]; read-out: Kd) [nM] | Kd [2] [nM]
1 | Clc1cncc(N2CCNCC2)n1 [MK-212] | 16 | 150 | 2400 | –
2 | c1cn2ccnc2c(N2CCNCC2)n1 | 160 | 19 | 3100 | –
3 | Clc1cn2c3c(nc2c(N2CCNCC2)n1)CCCC3 | 0.13 | 1500 | 200 | –
4 | ClC1=CN2CCN=C2C(N2CCNCC2)=N1 | 1.9 | 1600 | 3000 | –
5 | CN1CCN2c3ccccc3Cc3ccccc3C2C1 (configuration not stated) [MIANSERIN] | 2.3 | 19 | – | 43
6 | CN1CCN(c2nc(Cl)cn3ccnc23)CC1 | 2.6 | 144 | 380 | –
7 | Clc1cn2c(Cl)cnc2c(N2CCNCC2)n1 | 0.4 | 1000 | 410 | –
8 | Clc1cn2ccnc2c(N2CCNCC2)n1 | 2.8 | 88 | 250 | –
9 | c1cn2c(N3CCNCC3)cncc2n1 | 1.8 | 28100 | 51000 | –
10 | c1ccc(-c2cn3ccnc3c(N3CCNCC3)n2)cc1 | 0.2 | 1800 | 360 | –
11 | c1ccc2c(c1)N=C(N1CCNCC1)C1=NCCN12 | 0.72 | 1800 | 1300 | –
12 | Clc1cnc2c(N3CCNCC3)nccn12 | 9.6 | 290 | 2780 | –
13 | Clc1cnc2cnc(N3CCNCC3)cn12 | 0.36 | 18900 | 6800 | –
14 | Cc1cnc2c(N3CCNCC3)nc(Cl)cn12 | 0.64 | 250 | 160 | –

Source: ChEMBL document CHEMBL1122454, “Piperazinylimidazo[1,2-a]pyrazines with selective affinity for in vitro alpha-adrenergic receptor subtypes” (J Med Chem, 1983)
